What follows are compounds tested on Prostate-specific antigen (PSA) production in LNCaP cells (assay: PSA Assay (inhibition of PSA production in prostate cancer cells, ELISA)). Settings: Homo sapiens, LNCaP, 72 h, read-out: LNCAP IC50 (uM), inhibition of PSA production, LNCaP cells, R1881 1 ng/ml, three days, seven point assay.
Format: cell-based, human
Experimental: PSA Assay (Inhibition Test of the Compound of the Present Invention on Prostate-Specific Antigen (PSA) Production in Various Prostate Cancer Cells).
Androgen dependent LNCaP cells were purchased from the American Type Culture Collection (ATCC, Manassas, Va.). These cells were grown in RPMI 1640 medium supplemented with 10% fetal bovine serum (FBS), 100 U/mL penicillin, 100 μg/mL streptomycin, and 0.25 μg/mL amphotericin B. The cells were maintained at 37° C. and 5% CO2. LNCaP cells between passage 20 and 35 were used for experiments. LNCaP is a hormone sensitive cell line. For the PSA assay, human prostate cancer cells LNCaP were seeded in a 96-well plate at a concentration of 5000 cells/100 μl/well. On the following day, Methyltrienolone (R1881, AR agonist) (final concentration 1 ng/ml), test compounds or bicalutamide (Casodex®, AstraZeneca) (final concentration 0.005 to 20 μM) were added. Three days after the addition, the concentration of PSA in the supernatant of the culture solution was measured by ELISA. ELISAs for human PSA in culture medium were performed using the ultra-sensitive assay procedure and reagents in the Active™ PSA assay kit (Diagnostic Systems Laboratories Inc., Webster, Tex.). Culture medium and standards (200 μl/well) were incubated in antibody-coated plates for 2 h at room temperature on a Titer plate shaker at 500-600 rpm. Wells were then washed five times. The HRP conjugate was diluted 1:20 with assay buffer, and 100 μl was added to all wells. The plates were incubated for 30 min at room temperature on the shaker and washed as before, and 100 μl TMB (3,3′,5,5′-tetramethylbenzidine, 0.4 g/l) was added. The plates were incubated for 10 min on the shaker, and the reaction was terminated with 100 μl stop solution. The plates were read using a plate reader at 450 nm with a 650 nm reference filter. PSA levels were normalized for differences in growth of LNCaP cells following various treatments as determined by the MTS assay. IC50 of PSA was calculated based on a seven point assay (concentrations of tested compound) and expressed as micromolar (uM).

Row | Structure (SMILES) | IC50
1 | CC1(C)C(=O)N(c2ccc(C#N)c(C(F)(F)F)c2F)C(=S)N1c1ccc(CCCc2ncco2)c(F)c1 [Example 49, 3-Fluoro-4-{3-[3-fluoro-4-(3-oxazol-2-yl-propyl)-phenyl]-4,4-dimethyl-5-oxo-2-thioxo-imidazolidin-1-yl}-2-trifluoromethyl-benzonitrile] | 0.49 µM
2 | CNC(=O)CCCc1ccc(N2C(=S)N(c3ccc(C#N)c(C(F)(F)F)c3F)C(=O)C2(C)C)cc1 [Example 5, 4-(4-(3-(4-cyano-2-fluoro-3-(trifluoromethyl)phenyl)-5,5-dimethyl-4-oxo-2-thioxoimidazolidin-1-yl)phenyl)-N-methylbutanamide] | 0.37 µM
3 | CNC(=O)C(C)(C)CCc1ccc(N2C(=S)N(c3ccc(C#N)c(C(F)(F)F)c3F)C(=O)C2(C)C)cc1 [Example 22, 4-{4-[3-(4-Cyano-2-fluoro-3-trifluoromethyl-phenyl)-5,5-dimethyl-4-oxo-2-thioxo-imidazolidin-1-yl]-phenyl}-2,2,N-trimethyl-butyramide] | 0.6 µM
4 | CNC(=O)C(C)(C)CCc1ccc(N2C(=S)N(c3ccc(C#N)c(C(F)(F)F)c3F)C(=O)C23CCC3)cc1 [Example 25, 4-{4-[7-(4-Cyano-2-fluoro-3-trifluoromethyl-phenyl)-8-oxo-6-thioxo-5,7-diaza-spiro[3.4]oct-5-yl]-phenyl}-2,2,N-trimethyl-butyramide] | 0.82 µM
5 | CC1(C)C(=O)N(c2ccc(C#N)c(C(F)(F)F)c2)C(=S)N1c1ccc(CCCC(=O)N2CCOCC2)nc1 [Example 56, 4-{4,4-Dimethyl-3-[6-(4-morpholin-4-yl-4-oxo-butyl)-pyridin-3-yl]-5-oxo-2-thioxo-imidazolidin-1-yl}-2-trifluoromethyl-benzonitrile] | 3.64 µM
6 | COc1c(C#N)ccc(N2C(=O)C(C)(C)N(c3ccc(CCCC#N)nc3)C2=S)c1F [Example 39, 4-(3-(6-(3-cyanopropyl)pyridin-3-yl)-4,4-dimethyl-5-oxo-2-thioxoimidazolidin-1-yl)-3-fluoro-2-methoxybenzonitrile] | 0.75 µM
7 | CNC(=O)CCOc1ccc(N2C(=S)N(c3ccc(C#N)c(C(F)(F)F)c3F)C(=O)C2(C)C)cc1 [Example 15, 3-(4-(3-(4-cyano-2-fluoro-3-(trifluoromethyl)phenyl)-5,5-dimethyl-4-oxo-2-thioxoimidazolidin-1-yl)phenoxy)-N-methylpropanamide] | 0.45 µM
8 | CNC(=O)CCCc1ccc(N2C(=S)N(c3ccc(C#N)c(C(F)(F)F)c3F)C(=O)C23CCC3)cc1F [Example 46, 4-{4-[7-(4-Cyano-2-fluoro-3-trifluoromethyl-phenyl)-8-oxo-6-thioxo-5,7-diaza-spiro[3.4]oct-5-yl]-2-fluoro-phenyl}-N-methyl-butyramide] | 0.63 µM
9 | CC1(C)C(=O)N(c2ccc(C#N)c(C(F)(F)F)c2F)C(=S)N1c1ccc(CCCC(=O)N2CCOCC2)nc1 [Example 55, 4-{4,4-Dimethyl-3-[6-(4-morpholin-4-yl-4-oxo-butyl)-pyridin-3-yl]-5-oxo-2-thioxo-imidazolidin-1-yl}-3-fluoro-2-trifluoromethyl-benzonitrile] | 1.2 µM
10 | COC(=O)CCCc1ccc(N2C(=S)N(c3ccc(C#N)c(C(F)(F)F)c3F)C(=O)C2(C)C)cc1 [Example 2, methyl 4-(4-(3-(4-cyano-2-fluoro-3-(trifluoromethyl)phenyl)-5,5-dimethyl-4-oxo-2-thioxoimidazolidin-1-yl)phenyl)butanoate] | 1.45 µM
11 | N#Cc1ccc(N2C(=O)C3(CCC3)N(c3ccc(CCCc4ncco4)nc3)C2=S)c(F)c1C(F)(F)F [Example 65, 3-Fluoro-4-{5-[6-(3-oxazol-2-yl-propyl)-pyridin-3-yl]-8-oxo-6-thioxo-5,7-diaza-spiro[3.4]oct-7-yl}-2-trifluoromethyl-benzonitrile] | 0.6 µM
12 | CNC(=O)CCc1ccc(N2C(=S)N(c3ccc(C#N)c(C(F)(F)F)c3F)C(=O)C2(C)C)cc1 [Example 4, 3-(4-(3-(4-cyano-2-fluoro-3-(trifluoromethyl)phenyl)-5,5-dimethyl-4-oxo-2-thioxoimidazolidin-1-yl)phenyl)-N-methylpropanamide] | 14.4 µM
13 | CC1(C)C(=O)N(c2cc(C(F)(F)F)c(C#N)cc2F)C(=S)N1c1ccc(CCCc2ncc[nH]2)c(F)c1 [Example 60, 4-(3-(4-(3-(1H-imidazol-2-yl)propyl)-3-fluorophenyl)-4,4-dimethyl-5-oxo-2-thioxoimidazolidin-1-yl)-5-fluoro-2-(trifluoromethyl)benzonitrile] | 3.3 µM
14 | COc1cc(N2C(=O)C(C)(C)N(c3ccc(CCCc4nccs4)nc3)C2=S)ccc1C#N [Example 69, 4-(4,4-dimethyl-5-oxo-3-(6-(3-(thiazol-2-yl)propyl)pyridin-3-yl)-2-thioxoimidazolidin-1-yl)-2-methoxybenzonitrile] | 0.68 µM
15 | CC1(C)C(=O)N(c2ccc(C#N)c(C(F)(F)F)c2)C(=S)N1c1ccc(CCCc2ncco2)nc1 [Example 64, 4-{4,4-Dimethyl-3-[6-(3-oxazol-2-yl-propyl)-pyridin-3-yl]-5-oxo-2-thioxo-imidazolidin-1-yl}-2-trifluoromethyl-benzonitrile] | 0.45 µM
16 | CNC(=O)CCCc1ccc(N2C(=S)N(c3ccc(C#N)c(C(F)(F)F)c3F)C(=O)C23CCC3)cc1 [Example 10, 4-(4-(7-(4-cyano-2-fluoro-3-(trifluoromethyl)phenyl)-8-oxo-6-thioxo-5,7-diazaspiro[3.4]octan-5-yl)phenyl)-N-methylbutanamide] | 0.42 µM
17 | COC(=O)CCCc1ccc(N2C(=S)N(c3ccc(C#N)c(Cl)c3F)C(=O)C2(C)C)cc1 [Example 1, methyl 4-(4-(3-(3-chloro-4-cyano-2-fluorophenyl)-5,5-dimethyl-4-oxo-2-thioxoimidazolidin-1-yl)phenyl)butanoate] | 1.34 µM
18 | COc1c(C#N)ccc(N2C(=O)C(C)(C)N(c3ccc(CCCC#N)c(F)c3)C2=S)c1F [Example 30, 4-(3-(4-(3-cyanopropyl)-3-fluorophenyl)-4,4-dimethyl-5-oxo-2-thioxoimidazolidin-1-yl)-3-fluoro-2-methoxybenzonitrile] | 0.29 µM
19 | CC1(C)C(=O)N(c2ccc(C#N)c(Cl)c2F)C(=S)N1c1ccc(CCCC(N)=O)cc1 [Example 9, 4-(4-(3-(3-chloro-4-cyano-2-fluorophenyl)-5,5-dimethyl-4-oxo-2-thioxoimidazolidin-1-yl)phenyl)butanamide] | 0.59 µM
20 | CN1CCN(C(=O)CCCc2ccc(N3C(=S)N(c4ccc(C#N)c(C(F)(F)F)c4F)C(=O)C3(C)C)cc2F)CC1 [Example 53, 3-Fluoro-4-(3-{3-fluoro-4-[4-(4-methyl-piperazin-1-yl)-4-oxo-butyl]-phenyl}-4,4-dimethyl-5-oxo-2-thioxo-imidazolidin-1-yl)-2-trifluoromethyl-benzonitrile] | 0.41 µM
21 | N#CCCCc1ccc(N2C(=S)N(c3ccc(C#N)c(Cl)c3F)C(=O)C23CCC3)cc1F [Example 33, 2-chloro-4-(5-(4-(3-cyanopropyl)-3-fluorophenyl)-8-oxo-6-thioxo-5,7-diazaspiro[3.4]octan-7-yl)-3-fluorobenzonitrile] | 0.64 µM
22 | N#Cc1ccc(N2C(=O)C3(CCC3)N(c3ccc(CCCC(=O)N4CC(O)C4)c(F)c3)C2=S)c(F)c1C(F)(F)F [Example 61, 3-Fluoro-4-(5-{3-fluoro-4-[4-(3-hydroxy-azetidin-1-yl)-4-oxo-butyl]-phenyl}-8-oxo-6-thioxo-5,7-diaza-spiro[3.4]oct-7-yl)-2-trifluoromethyl-benzonitrile] | 0.19 µM
23 | CC1(C)C(=O)N(c2ccc(C#N)c(C(F)(F)F)c2F)C(=S)N1c1ccc(CCCc2ncc[nH]2)nc1 [Example 66, 4-(3-(6-(3-(1H-imidazol-2-yl)propyl)pyridin-3-yl)-4,4-dimethyl-5-oxo-2-thioxoimidazolidin-1-yl)-3-fluoro-2-(trifluoromethyl)benzonitrile] | 1.27 µM
24 | CN(C)C(=O)CCCc1ccc(N2C(=S)N(c3ccc(C#N)c(Cl)c3F)C(=O)C2(C)C)cc1 [Example 14, 4-{4-[3-(3-Chloro-4-cyano-2-fluoro-phenyl)-5,5-dimethyl-4-oxo-2-thioxo-imidazolidin-1-yl]-phenyl}-N,N-dimethyl-butyramide] | 0.69 µM
25 | CNC(=O)CCOc1ccc(N2C(=S)N(c3ccc(C#N)c(Cl)c3F)C(=O)C2(C)C)cc1 [Example 16, 3-(4-(3-(3-chloro-4-cyano-2-fluorophenyl)-5,5-dimethyl-4-oxo-2-thioxoimidazolidin-1-yl)phenoxy)-N-methylpropanamide] | 0.58 µM
26 | CC1(C)C(=O)N(c2ccc(C#N)c(C(F)(F)F)c2F)C(=S)N1c1ccc(CCCc2nccs2)nc1 [Example 67, 4-(4,4-dimethyl-5-oxo-3-(6-(3-(thiazol-2-yl)propyl)pyridin-3-yl)-2-thioxoimidazolidin-1-yl)-3-fluoro-2-(trifluoromethyl)benzonitrile] | 0.27 µM

Source: patent US9216957B2, “Androgen receptor antagonists and uses thereof” (SUZHOU KINTOR PHARMACEUTICALS, INC., priority 2011, dated 2015)
